Measured values: US11225505B2, “Antimicrobial polymyxin derivative compounds” (MONASH UNIVERSITY, priority 2015, dated 2022)
≈ marks a conversion by molar mass, not a printed value. Read-outs that look alike come from different tables or passages of the source. Where a SMILES comes first, the peptide text is derived from it. Bridges are numbered along the chain shown (N, C = ends). [ ]: non-standard residue; d: D form. The star is where a group is joined. X16 = O=C(c1cnc(-c2ccccc2)nc1)*; X46 = O=C(c1cc(Br)nc(Br)c1)*; Dab = NCC[C@H](N)C(=O)O; X10 = O=C(c1cc(Br)cs1)*; Abu = CC[C@H](N)C(=O)O; Dap = NC[C@H](N)C(=O)O

Legend:
Format in all cases: cell-based
[1] = system: Acinetobacter baumannii FADDI-AB030; test: microbe, parasite or virus in culture; conditions: for MIC: Acinetobacter baumannii
Description: MICs of the lipopeptides (trifluoroacetic acid salt, TFA) were determined by broth microdilution in cation-adjusted Mueller-Hinton broth (CAMHB) (Oxoid Australia, Thebarton, SA, Australia) according to the Clinical and Laboratory Standards Institute protocol (Clinical and Laboratory Standards Institute, Performance standards for antimicrobial susceptibility testing; twentyforth informational supplement M100-S24. Wayne, Pa., 2014). Polymyxin B sulphate was employed as the control. […] The following isolates were examined: Pseudomonas aeruginosa ATCC 27853, Pseudomonas aeruginosa FADDI-PA022*, Pseudomonas aeruginosa FADDI-PA01*, Pseudomonas aeruginosa FADDI-PA038*, Acinetobacter baumannii FADDI-AB034*, Acinetobacter baumannii ATCC 17978, Acinetobacter baumannii FADDI-AB030*, Klebsiella pneumoniae FADDI-KP032, Klebsiella pneumoniae FADDI-KP022*, Klebsiella pneumoniae Kp BM1*, Enterobacter cloacae FADDI-EC006, Enterobacter cloacae FADDI-EC001, and Enterobacter cloacae FADDI-EC003 (* Multi drug-resistant clinical isolates, § New Delhi Metallo-beta-lactamase-1 (NDM-1) producing). The results are illustrated in Tables 4 and 5. […]

[2] = system: Acinetobacter baumannii ATCC 17978; conditions: ATCC 17978
Description: (§1) MICs of the lipopeptides (trifluoroacetic acid salt, TFA) were determined by broth microdilution in cation-adjusted Mueller-Hinton broth (CAMHB) (Oxoid Australia, Thebarton, SA, Australia) according to the Clinical and Laboratory Standards Institute protocol (Clinical and Laboratory Standards Institute, Performance standards for antimicrobial susceptibility testing; twentyforth informational supplement M100-S24. Wayne, Pa., 2014). Polymyxin B sulphate was employed as the control. Antimicrobial activity of Compounds 1-104 against polymyxin-susceptible Gram-negative bacteria was examined. The following isolates were examined: Pseudomonas aeruginosa ATCC 27853, Pseudomonas aeruginosa FADDI-PA022*, Pseudomonas aeruginosa FADDI-PA01*, Pseudomonas aeruginosa FADDI-PA038*, Acinetobacter baumannii FADDI-AB034*, Acinetobacter baumannii ATCC 17978, Acinetobacter baumannii FADDI-AB030*, Klebsiella pneumoniae FADDI-KP032, Klebsiella pneumoniae FADDI-KP022*, Klebsiella pneumoniae Kp BM1*, Enterobacter cloacae FADDI-EC006, Enterobacter cloacae FADDI-EC001, and Enterobacter cloacae FADDI-EC003 (* Multi drug-resistant clinical isolates, § New Delhi Metallo-beta-lactamase-1 (NDM-1) producing). The results are illustrated in Tables 4 and 5.

[3] = system: Pseudomonas aeruginosa FADDI-PA022; conditions: FADDI-PA022
Description: as §1

[4] = system: Klebsiella pneumoniae FADDI-KP022; conditions: FADDI-KP022
Description: as §1

[5] = system: Klebsiella pneumoniae FADDI-KP032; conditions: FADDI-KP032
Description: as §1

[6] = system: Pseudomonas aeruginosa FADDI-PA038; conditions: FADDI-PA038
Description: as §1

[7] = system: Klebsiella pneumoniae Kp BM1; conditions: Kp BM1
Description: as §1

[8] = system: Enterobacter cloacae FADDI-EC006; conditions: FADDI-EC006
Description: as §1

[9] = system: Enterobacter cloacae FADDI-EC001; conditions: FADDI-EC001
Description: as §1

[10] = system: Pseudomonas aeruginosa FADDI-PA01; conditions: FADDI-
Description: as §1

[11] = system: Acinetobacter baumannii FADDI-AB034; conditions: FADDI-AB034
Description: as §1

[12] = system: Pseudomonas aeruginosa ATCC 27853; conditions: ATCC 27853
Description: as §1

[13] = system: Enterobacter cloacae FADDI-EC003; conditions: FADDI-EC003
Description: as §1

[14] = FADDIAB030, clinically used antibiotics, clinical isolate A. baumannii FADDI-AB030, read-out: minimum inhibitory concentration

In the case of `CC[C@@H]1NC(=O)[C@@H](CC(C)C)NC(=O)[C@H](CCN)NC(=O)[C@@H](NC(=O)[C@H](CN)NC(=O)[C@@H](NC(=O)[C@H](CCN)NC(=O)c2cnc(-c3ccccc3)nc2)[C@@H](C)O)CCNC(=O)[C@H]([C@@H](C)O)NC(=O)[C@H](CCN)NC(=O)[C@H](CCN)NC1=O` [Compound 73] (X16-[Dab]T[Dap][Dab][Dab][dL][Abu][Dab][Dab]T; lactam 4-C), the Minimum inhibitory concentration ([1]; FADDI-AB030) is reported as 0.5 µg/mL (≈ 0.428 µM), the Minimum inhibitory concentration [2] is reported as 0.5 µg/mL (≈ 0.428 µM) and the Minimum inhibitory concentration [3] is reported as 0.5 µg/mL (≈ 0.428 µM). For the same compound, the Minimum inhibitory concentration [4] was less than 0.125 µg/mL, the Minimum inhibitory concentration [5] was less than 0.125 µg/mL and the Minimum inhibitory concentration [6] was 2 µg/mL (≈ 1.71 µM). The Minimum inhibitory concentration [7] was less than 0.125 µg/mL, the Minimum inhibitory concentration [8] was 1 µg/mL (≈ 0.855 µM) and the Minimum inhibitory concentration [9] was less than 0.125 µg/mL. For the same compound, the Minimum inhibitory concentration [10] was 0.5 µg/mL (≈ 0.428 µM), the Minimum inhibitory concentration [11] was 0.5 µg/mL (≈ 0.428 µM) and the Minimum inhibitory concentration [12] was 0.5 µg/mL (≈ 0.428 µM). For the same compound, the Minimum inhibitory concentration [13] was 0.5 µg/mL (≈ 0.428 µM).
`CC[C@@H]1NC(=O)[C@@H](CC(C)C)NC(=O)[C@H](CCN)NC(=O)[C@@H](NC(=O)[C@H](CN)NC(=O)[C@@H](NC(=O)[C@H](CCN)NC(=O)c2cc(Br)cs2)[C@@H](C)O)CCNC(=O)[C@H]([C@@H](C)O)NC(=O)[C@H](CCN)NC(=O)[C@H](CCN)NC1=O` [Compound 88] (X10-[Dab]T[Dap][Dab][Dab][dL][Abu][Dab][Dab]T; lactam 4-C) was tested, and the Minimum inhibitory concentration ([1]; FADDI-AB030) was 0.5 µg/mL (≈ 0.425 µM), the Minimum inhibitory concentration [2] was 0.5 µg/mL (≈ 0.425 µM) and the Minimum inhibitory concentration [3] was 0.5 µg/mL (≈ 0.425 µM). It also gave a Minimum inhibitory concentration [4] of less than 0.125 µg/mL, a Minimum inhibitory concentration [5] of 0.5 µg/mL (≈ 0.425 µM) and a Minimum inhibitory concentration [6] of 0.5 µg/mL (≈ 0.425 µM). The Minimum inhibitory concentration [7] was 0.25 µg/mL (≈ 0.213 µM), the Minimum inhibitory concentration [8] was 0.5 µg/mL (≈ 0.425 µM) and the Minimum inhibitory concentration [9] was less than 0.125 µg/mL. It also gave a Minimum inhibitory concentration [10] of 0.5 µg/mL (≈ 0.425 µM), a Minimum inhibitory concentration [11] of 0.5 µg/mL (≈ 0.425 µM) and a Minimum inhibitory concentration [12] of 0.5 µg/mL (≈ 0.425 µM). It also gave a Minimum inhibitory concentration [13] of 0.5 µg/mL (≈ 0.425 µM).
In the case of `CC[C@@H]1NC(=O)[C@@H](CC(C)C)NC(=O)[C@H](CCN)NC(=O)[C@@H](NC(=O)[C@H](CN)NC(=O)[C@@H](NC(=O)[C@H](CCN)NC(=O)c2cc(Br)nc(Br)c2)[C@@H](C)O)CCNC(=O)[C@H]([C@@H](C)O)NC(=O)[C@H](CCN)NC(=O)[C@H](CCN)NC1=O` [Compound 28] (X46-[Dab]T[Dap][Dab][Dab][dL][Abu][Dab][Dab]T; lactam 4-C), the Minimum inhibitory concentration ([1]; FADDI-AB030) is reported as 0.25 µg/mL (≈ 0.2 µM), the Minimum inhibitory concentration [2] is reported as 0.25 µg/mL (≈ 0.2 µM) and the Minimum inhibitory concentration [3] is reported as 0.25 µg/mL (≈ 0.2 µM). For the same compound, the Minimum inhibitory concentration [4] was less than 0.125 µg/mL, the Minimum inhibitory concentration [5] was 0.25 µg/mL (≈ 0.2 µM) and the Minimum inhibitory concentration [6] was 1 µg/mL (≈ 0.8 µM). It also gave a Minimum inhibitory concentration [7] of 0.25 µg/mL (≈ 0.2 µM), a Minimum inhibitory concentration [8] of less than 0.125 µg/mL and a Minimum inhibitory concentration [9] of 0.25 µg/mL (≈ 0.2 µM). It also gave a Minimum inhibitory concentration [10] of 1 µg/mL (≈ 0.8 µM), a Minimum inhibitory concentration [11] of 0.25 µg/mL (≈ 0.2 µM) and a Minimum inhibitory concentration [12] of 0.25 µg/mL (≈ 0.2 µM). It also gave a Minimum inhibitory concentration [13] of 0.25 µg/mL (≈ 0.2 µM).
In the case of `CC(C)(O/N=C(\C(=O)N[C@@H]1C(=O)N2C(C(=O)[O-])=C(C[n+]3ccccc3)CS[C@H]12)c1csc(N)n1)C(=O)O` [Ceftazidime, reference compound], the MIC [1, 14] is reported as greater than 16 µg/mL.
`NCC[C@H](O)C(=O)N[C@@H]1C[C@H](N)[C@@H](O[C@H]2O[C@H](CN)[C@@H](O)[C@H](O)[C@H]2O)[C@H](O)[C@H]1O[C@H]1O[C@H](CO)[C@@H](O)[C@H](N)[C@H]1O` [Amikacin, reference compound] was tested, and the MIC [1, 14] was greater than 32 µg/mL.
For `CN(C)[C@@H]1C(O)=C(C(N)=O)C(=O)[C@@]2(O)C(O)=C3C(=O)c4c(O)cccc4[C@@](C)(O)[C@H]3C[C@@H]12` [Tetracycline, reference compound], the MIC [1, 14] was greater than 8 µg/mL.
`CCN1CCN(C(=O)N[C@@H](C(=O)N[C@@H]2C(=O)N3[C@@H]2SC(C)(C)[C@@H]3C(=O)O)c2ccccc2)C(=O)C1=O` [Piperacillin, reference compound] gave an MIC [1, 14] greater than 64 µg/mL.
In the case of `C[C@H]1c2cccc(O)c2C(=O)C2=C(O)[C@]3(O)C(=O)C(C(N)=O)=C(O)[C@@H](N(C)C)[C@@H]3[C@@H](O)[C@@H]21` [Doxycycline, reference compound], the MIC [1, 14] is reported as greater than 8 µg/mL.
Compound `CO/N=C(\C(=O)N[C@@H]1C(=O)N2C(C(=O)O)=C(CSc3nc(=O)c(=O)[nH]n3C)CS[C@H]12)c1csc(N)n1` [Ceftriaxone, reference compound] has an MIC [1, 14] greater than 32 µg/mL.
Compound `C[C@H]1NCc2cc(-c3ccc4c(=O)c(C(=O)O)cn(C5CC5)c4c3OC(F)F)ccc21` [Garenoxacin, reference compound] has an MIC [1, 14] greater than 4 µg/mL.
With `C[C@H]1COc2c(N3CCN(C)CC3)c(F)cc3c(=O)c(C(=O)O)cn1c23` [Levofloxacin, reference compound] the MIC [1, 14] was greater than 4 µg/mL.
`C[C@@H](O)[C@H]1C(=O)N2C(C(=O)O)=C(S[C@@H]3CN[C@H](C(=O)Nc4cccc(C(=O)O)c4)C3)[C@H](C)[C@H]12` [Ertapenem, reference compound] gave an MIC [1, 14] greater than 8 µg/mL.
For `CN(C)c1cc(NC(=O)CNC(C)(C)C)c(O)c2c1C[C@H]1C[C@H]3[C@H](N(C)C)C(O)=C(C(N)=O)C(=O)[C@@]3(O)C(O)=C1C2=O` [Tigecycline, reference compound], the MIC ([1]; FADDIAB030, read-out: minimum inhibitory concentration) was 4 µg/mL (≈ 6.83 µM).
In the case of `NC[C@H]1O[C@H](O[C@H]2[C@H](O)[C@@H](O[C@H]3O[C@H](CO)[C@@H](O)[C@H](N)[C@H]3O)[C@H](N)C[C@@H]2N)[C@H](N)C[C@@H]1O` [Tobramycin, reference compound], the MIC [1, 14] is reported as greater than 16 µg/mL.
`COc1c(N2C[C@@H]3CCCN[C@@H]3C2)c(F)cc2c(=O)c(C(=O)O)cn(C3CC3)c12` [Moxifloxacin, reference compound] showed an MIC [1, 14] greater than 4 µg/mL.
`CO/N=C(\C(=O)N[C@@H]1C(=O)N2C(C(=O)[O-])=C(C[N+]3(C)CCCC3)CS[C@H]12)c1csc(N)n1` [Cefepime, reference compound] showed an MIC [1, 14] greater than 16 µg/mL.
Compound `C[C@@H](O)[C@H]1C(=O)N2C(C(=O)O)=C(S[C@@H]3CN[C@H](CNS(N)(=O)=O)C3)[C@H](C)[C@H]12` [Doripenem, reference compound] has an MIC [1, 14] greater than 8 µg/mL.
Compound `COc1c(N2CCNC(C)C2)c(F)cc2c(=O)c(C(=O)O)cn(C3CC3)c12` (stereo not drawn) [Gatifloxacin, reference compound] has an MIC [1, 14] greater than 4 µg/mL.
Compound `C[C@@H](O)[C@H]1C(=O)N2C(C(=O)O)=C(S[C@@H]3CN[C@H](C(=O)N(C)C)C3)[C@H](C)[C@H]12` [Meropenem, reference compound] has an MIC [1, 14] greater than 8 µg/mL.
Work on Gentamicin [reference compound] yielded a Minimum inhibitory concentration ([1]; clinically used antibiotics, clinical isolate A. baumannii FADDI-AB030) greater than 8 µg/mL.
Compound `CN(C)c1ccc(O)c2c1C[C@H]1C[C@H]3[C@H](N(C)C)C(O)=C(C(N)=O)C(=O)[C@@]3(O)C(O)=C1C2=O` [Minocycline, reference compound] has an MIC [1, 14] greater than 8 µg/mL.
With `C[C@@H](O)[C@H]1C(=O)N2C(C(=O)O)=C(SCCN=CN)C[C@H]12` [Imipenem, reference compound] the MIC [1, 14] was greater than 8 µg/mL.
With `C[C@H]1[C@H](NC(=O)/C(=N\OC(C)(C)C(=O)O)c2csc(N)n2)C(=O)N1S(=O)(=O)O` [Aztreonam, reference compound] the MIC [1, 14] was greater than 16 µg/mL.
With `CC1(C)S[C@@H]2[C@H](NC(=O)[C@H](N)c3ccccc3)C(=O)N2[C@H]1C(=O)O` [Ampicillin, reference compound] the MIC [1, 14] was greater than 16 µg/mL.
